Test results published in patent publication US5585380A, “Modulation of cellular response to external stimuli” (priority 1995, dated 1996).

What was measured:
[1] = test system: NIH3T3 cell line (D5C3) transformed with temperature-sensitive v-abl mutant gene; test: Blocking transformed phenotype of D5C3 cells; format: cell-based, murine; settings: pentoxifylline 1 mM, Ciprofloxacin 50 μg/ml
Protocol: An NIH3T3 cell line ([MUT]) provides target cells which were transformed by an activated oncogene. The cells were transformed with a temperature-sensitive v-abl mutant gene. This mutant gene encodes a temperature-sensitive v-abl protein that produces a non-oncogenic product at a non-permissive temperature due to a lack of tyrosine phosphorylation. The cells were incubated at the permissive temperature (33° C.) for 5 days after passage with and without pentoxifylline (1 mM).

T cell proliferation = settings: Singer et al., Bone Marrow Transplantation (in press); cited from earlier work
[2] = test system: PA and DAG levels in human glomerular mesangial cells; test: Invention assay: HPLC of lipids from IL-1-stimulated mesangial cells; format: cell-based; settings: HMC incubated with diacylglycerol kinase inhibitor
Protocol: The compounds of Formula I are shown to modulate the effects of primary stimuli which elevate levels of the relevant subspecies of PA and DAG using the assay system of the invention. In general for the assay, the cells to be tested are first incubated with the primary stimulating agent for various time periods and fixed in ice-cold methanol. The lipids are extracted using, for example, chloroform:methanol 2:1 (v/v), and the extracts are then subjected to HPLC as described by Bursten and Harris, Biochemistry (1991)------. In this method, a Rainin mu-Porasil column is used with a 3:4 hexane:propanol organic carrier and a 1-10% water gradient during the first 10 minutes of separation. Detection of the peaks in the elution pattern is by absorption in the range of ultraviolet which detects isolated double bonds. Thus, the relevant peaks of unsaturated PA and DAG are shown in the elution pattern. It is important to note that the assay method permits discrimination between various forms of PA and DAG so that those relevant to the pathway affected by the compounds of Formula I can be measured directly. Confirmation of the nature of the acyl substituents of these components is accomplished using fast-atom bombardment mass spectroscopy. Thus, the relevant unsaturated (non-arachidonic) PA and DAG subspecies may be detected. The time periods employed are 5-60 seconds after stimulation with the primary stimulus, such as a cytokine. This technique permits assessment of the levels of various lipid components as a function of time.
To test the effect of the compounds of the invention, the candidate compound is included in the initial incubation at various concentrations. Fixing, extraction and HPLC are conducted as above. The effect of the candidate compound is then reflected in a lowering of the relevant PA and DAG levels as compared to the cells without candidate in the control as illustrated hereinbelow.
Human glomerular mesangial cells were incubated with IL-1 for various time periods of 5-60 seconds and the cells were fixed in ice-cold methanol, and the lipids extracted using chloroform:methanol 2:1 (v/v). It is very important that the fixing/extraction process be conducted quickly so that the decomposition of unstable intermediates is halted.
The extracts were subjected to HPLC on a Rainin mu-Porasil column with a 3:4 hexane:propanol organic carrier and a 1-10% water gradient during the first 10 minutes of separation. The relative concentration of each lipid species is determined using absorption at 206 nm (A206), which follows unsaturated acyl content of lipid species. […] The absolute mass of each lipid species is determined by lisolation of the lipid using a fraction collector, repurification on the HPLC column. […] Protein concentration is determined using the Bradford technique. […]

[3] = test system: patients undergoing allogeneic bone marrow transplant; test: Preliminary study in allogeneic bone marrow transplant patients; format: in vivo, human; settings: first 30 days post-transplant; PTX/CIPRO N=10, GM-CSF N=27; all also PD and cyclosporin
Protocol: A preliminary study was conducted on patients undergoing allogeneic bone marrow transplant for multiple myeloma, for lymphoid malignancies, or for advanced stage CML or AML. Prednisone is often administered as an immunosuppressant in all experimental groups. In the study, these patients received the drugs for a minimum of 3 days to a maximum of 7 days prior to starting their preparative regimen while in the outpatient department according to the following regimen:
PTX: 600 mg p.o. qid at 9 am, 1 pm, 5 pm and 9 pm;
CIPRO: 500 mg p.o.b.i.d.; and
PD: 0.5 mg/kg b.i.d. (total 1 mg/kg/day changed to methylprednisolone at an equivalent dose starting on day -1).
For the duration of therapy, the patients are continued on the study drugs as follows:
PTX: until day +20 post-transplant then tapered 600 mg/day until off;
CIPRO: until day 30 post-transplant or day of discharge if sooner than day 30; and
PD: tapered starting on day 0 over 14 days until off.
All patients in these studies received PD and cyclosporin as GVHD prophylaxis. Granulocyte recovery was measured post-bone marrow transplant in patients receiving therapy with PTX, CIPRO in addition to standard PD administration (N=10), or GM-CSF (N=10), or PTX (N=4).

[4] = test system: recipients of matched allogeneic donor marrow; test: Matched allogeneic donor trial; format: in vivo, human
From the text: (§1) They are given steroids to reduce inflammation. […] In this group of patients, GVHD approaches 90%.

[5] = test system: recipients of marrow from unrelated donors; test: Unrelated donor trial; format: in vivo, human
From the text: as §1

[6] = day on which ANC ≥ 100 cells/uL on two consecutive days
[7] = day on which ANC ≥ 1,000 cells/uL on two consecutive days
[8] = first day RBC count ≥ 30% for 7 consecutive days untransfused
[9] = first day platelet count ≥ 20,000/uL for 7 consecutive days untransfused
[10] = initial discharge from the hospital
[11] = maximum serum bilirubin days 0-28 post BMT
[12] = maximum serum creatinine day 0-28 post BMT

Q: Which “effect on the transformed phenotype” value [1] does the source give for `O=C(O)c1cn(C2CC2)c2cc(N3CCNCC3)c(F)cc2c1=O` [Ciprofloxacin] here?
A: The value was “significant effect”.

Q: For `Cn1c(=O)n(CCCCC(C)(C)O)c(=O)c2[nH]cnc21` [HWA138, reference compound], which “suppression of T cell proliferation” value (T cell proliferation) is on record?
A: Its value is “minimal or no suppression”.

Q: With `CCOCn1cnc2c1c(=O)n(CCCCC(C)(C)O)c(=O)n2C` [HWA448, reference compound] as the compound, how does the “suppression of T cell proliferation” value (T cell proliferation) read?
A: The value was “active”.

Q: Which “suppression of T cell proliferation” value (T cell proliferation) does the source give for `CC(O)CCCCn1c(=O)c2c(ncn2C)n(C)c1=O` (stereo not shown) [M1, 1-(5-hydroxyhexyl)-3,7-dimethylxanthine] here?
A: Its value is “active”.

Q: With `CC(O)C(O)CCCn1c(=O)c2c(ncn2C)n(C)c1=O` (stereo not shown) [M3, 1-(4,5-dihydroxyhexyl) -3,7-dimethylxanthine] as the compound, how does the “suppression of T cell proliferation” value (T cell proliferation) read?
A: Its value is “minimal or no suppression”.

Q: Which “suppression of T cell proliferation” value (T cell proliferation) does the source give for `Cn1cnc2c1c(=O)n(CCCCC(=O)O)c(=O)n2C` [M4, 1-(4-carboxybutyl)-3,7-dimethylxanthine] here?
A: The value was “minimal or no suppression”.

Q: For `Cn1cnc2c1c(=O)n(CCCC(=O)O)c(=O)n2C` [M5, 1-(3-carboxypropyl)-3,7-dimethylxanthine], which “suppression of T cell proliferation” value (T cell proliferation) is on record?
A: The value was “minimal or no suppression”.

Q: For `Cc1nc2sccn2c(=O)c1CCN1CCC(=C(c2ccccc2)c2ccc(F)cc2)CC1` [R 50922], which “HPLC pattern (reappearance of PA after IL-1)” value [2] is on record?
A: Its value is “does not alter the HPLC pattern”.

Q: Which results are given for “GM-CSF: granulocyte-macrophage colony-stimulating factor”?
A: platelet transfusion requirement [3]: 87±69 units; red blood cell requirement [3]: 24.7±24 units; ANC ≥ 100, mean ± standard deviation [4, 6]: 8 ± 6 days; ANC ≥ 100, median [4, 6]: 9.0 days; ANC ≥ 1,000, mean ± standard deviation [4, 7]: 16 ± 9 days; ANC ≥ 1,000, median [4, 7]: 14.0 days; Bili ≥ 5.0 mg/dL, patients ([4]; days 0-28 post BMT): 44%; Creat ≥ 2.0 mg/dL, patients ([4]; days 0-28 post BMT): 22%; ANC ≤ 100, mean ± standard deviation ([4]; days below 100 cells/uL): 6 ± 4 days; ANC ≤ 100, median ([4]; days below 100 cells/uL, GM-CSF 27, PTX/CIPRO 23 patients): 5.0 days; Last RBC day, mean ± standard deviation [4, 8]: 63 ± 39 days; Last RBC day, median [4, 8]: 59.0 days; Last plt day, mean ± standard deviation [4, 9]: 17 ± 11 days; Last plt day, median [4, 9]: 23.0 days; Day discharge, mean ± standard deviation [4, 10]: 26 ± 13 days; Day discharge, median [4, 10]: 24.0 days; Max Bili, mean ± standard deviation [4, 11]: 8 ± 10 mg/dL; Max Bili, median [4, 11]: 5.0 mg/dL; Max Creat, mean ± standard deviation [4, 12]: 1.8 ± 1.4 mg/dL; Max Creat, median [4, 12]: 1.5 mg/dL; Day 100 Survival ([4]; patients alive 100 days post transplant): 69%; Infection 0-28 ([4]; patients with positive bacterial blood cultures days 0-28 post BMT): 14%; Units platelets, mean ± standard deviation ([4]; platelets transfused day 0-28): 87 ± 74 units; Units platelets, median ([4]; platelets transfused day 0-28): 74.0 units; ANC ≤ 100, mean ± standard deviation [5]: 12 ± 7 days; ANC ≥ 100, mean ± standard deviation [5]: 18 ± 6 days; ANC ≥ 100, median [5]: 18.5 days; ANC ≥ 500, mean ± standard deviation [5]: 23 ± 4 days; ANC ≥ 500, median [5]: 22.5 days; ANC ≥ 1,000, mean ± standard deviation [5]: 26 ± 5 days; ANC ≥ 1,000, median [5]: 26.0 days; Bili ≥ 5.0 mg/dL, patients [5]: 46%; Day 100 Survival [5]: 86%; Day initial discharge, mean ± standard deviation [5]: 37 ± 14 days; Day initial discharge, median [5]: 37.0 days; GVHD Grade 0 [5]: 15%; GVHD Grade I [5]: 8%; GVHD Grade II [5]: 46%; GVHD Grade III [5]: 27%; GVHD Grade IV [5]: 4%; Infection 0-28 [5]: 7%; Last plt day, mean ± standard deviation [5]: 26 ± 6 days; Last plt day, median [5]: 24.5 days; Max Bili, mean ± standard deviation [5]: 7 ± 7 mg/dL; Max Bili, median [5]: 5.5 mg/dL; Max Creat, mean ± standard deviation [5]: 1.4 ± 1.2 mg/dL; Max Creat, median [5]: 1.1 mg/dL; Units platelets, mean ± standard deviation [5]: 90 ± 42 units; Units platelets, median [5]: 92.0 units; ANC ≤ 100, median ([5]; GM-CSF 30, PTX/CIPRO 17 patients): 12 days
